In PubChem BioAssay AID256 (DTP/NCI, 2004):
Values joined by “and” are separate entries in the source; they are usually repeats but may differ in a detail not shown here. Identical values can stand only once. Toxic doses and inconclusive results are not listed. Rule for the calls: active = survival T/C of 150% or more; inactive = T/C below 125% in these data.

Test system: CD2F1 mice, L1210 leukemia ip, survival T/C
Assay: NCI In Vivo Anticancer Drug Screen. Data for tumor model L1210 Leukemia (intraperitoneal) in CD2F1 (CDF1) mice
Conditions: higher = longer survival
Procedure, shortened: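 Read-out first: treated-group measurement over vehicle-control measurement, expressed as a ratio. Animals bore a transplanted tumor line and were dosed with compound or vehicle.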

[1] = endpoint: mean survival time, dose: 12.5 mg/kg/injection, schedule: Q01DX009 (ip), vehicle: saline with Tween-80
[2] = endpoint: mean survival time, dose: 25.0 mg/kg/injection, schedule: Q01DX009 (ip), vehicle: saline with Tween-80
[3] = endpoint: mean survival time, dose: 50.0 mg/kg/injection, schedule: Q01DX009 (ip), vehicle: saline with Tween-80
[4] = endpoint: mean survival time, dose: 100.0 mg/kg/injection, schedule: Q04DX003 (ip), vehicle: saline with Tween-80
[5] = endpoint: mean survival time, dose: 100.0 mg/kg/injection, schedule: Q01DX009 (ip), vehicle: saline with Tween-80
[6] = endpoint: mean survival time, dose: 200.0 mg/kg/injection, schedule: Q01DX009 (ip), vehicle: saline with Tween-80
[7] = endpoint: mean survival time, dose: 200.0 mg/kg/injection, schedule: Q04DX003 (ip), vehicle: saline with Tween-80
[8] = endpoint: mean survival time, dose: 400.0 mg/kg/injection, schedule: Q01DX009 (ip), vehicle: saline with Tween-80

Measured: T/C

Cc1ccc2c(ccc(/C=C/c3ccc(O)c4ncccc34)[n+]2C)c1
inactive: [1] 117 % of control | [2] 122 % of control | [3] 105 % of control | endpoint: mean survival time, dose: 66.0 mg/kg/injection, schedule: Q04DX003 (ip), vehicle: saline with Tween-80 119 % of control | [4] 119 % of control | endpoint: mean survival time, dose: 150.0 mg/kg/injection, schedule: Q04DX003 (ip), vehicle: saline with Tween-80 119 % of control

O=P(c1ccccc1)(c1ccccc1)c1ccccc1
inactive: [5] 97 % of control | [4] 97 % of control | [6] 95 % of control | [7] 100 % of control | [8] 100 % of control

CSCC1CCCCC12OCCO2 (configuration not stated)
inactive: endpoint: mean survival time, dose: 100.0 mg/kg/injection, schedule: Q01DX001 (ip), vehicle: saline with Tween-80 104 % of control | endpoint: mean survival time, dose: 200.0 mg/kg/injection, schedule: Q01DX001 (ip), vehicle: saline with Tween-80 96 % of control | endpoint: mean survival time, dose: 400.0 mg/kg/injection, schedule: Q01DX001 (ip), vehicle: saline with Tween-80 96 % of control

O=C(C[n+]1ccccc1)CC(O)(C(F)(F)F)C(F)(F)F
inactive: [5] 105 % of control | [6] 103 % of control

CC1CN(C(=N)C#N)C(C)CN1C(=N)C#N (configuration not stated)
inactive: endpoint: mean survival time, dose: 6.25 mg/kg/injection, schedule: Q01DX009 (ip), vehicle: saline with Tween-80 96 % of control | [1] 102 % of control | [2] 105 % of control

CC(=O)n1c(COS(C)(=O)=O)nc2ccccc21
inactive: endpoint: mean survival time, dose: 25.0 mg/kg/injection, schedule: Q01DX001 (ip), vehicle: carboxymethylcellulose (CMC) 105 % of control | endpoint: mean survival time, dose: 50.0 mg/kg/injection, schedule: Q01DX001 (ip), vehicle: carboxymethylcellulose (CMC) 103 % of control

Cc1cccc(=O)n1Cc1ccccc1
inactive: [4] 95 % of control | [7] 95 % of control | endpoint: mean survival time, dose: 400.0 mg/kg/injection, schedule: Q04DX003 (ip), vehicle: saline with Tween-80 95 % of control

O=[N+]([O-])c1cccc2c(S(=O)(=O)O)cccc12
inactive: [4] 102 % of control | [7] 98 % of control

CN1C(=O)C(=Cc2ccc(O)cc2)C(=O)N(C)C1=O
inactive: [1] 96 % of control and 100 % of control | [2] 102 % of control and 107 % of control | [3] 100 % of control and 108 % of control | [5] 104 % of control and 111 % of control | [6] 102 % of control and 106 % of control | [8] 106 % of control and 111 % of control

O=c1nc(-c2ccco2)sc(=O)[nH]1
inactive: endpoint: median survival time, dose: 25.0 mg/kg/injection, schedule: Q01DX009 (ip), vehicle: Klucel (hydroxypropylcellulose) (HPC) 100 % of control | endpoint: median survival time, dose: 50.0 mg/kg/injection, schedule: Q01DX009 (ip), vehicle: Klucel (hydroxypropylcellulose) (HPC) 106 % of control | endpoint: median survival time, dose: 100.0 mg/kg/injection, schedule: Q01DX009 (ip), vehicle: Klucel (hydroxypropylcellulose) (HPC) 96 % of control | endpoint: median survival time, dose: 200.0 mg/kg/injection, schedule: Q01DX009 (ip), vehicle: Klucel (hydroxypropylcellulose) (HPC) 102 % of control

Cc1cc2nc(CC(O)(C(F)(F)F)C(F)(F)F)oc2cc1C
inactive: [5] 91 % of control | [6] 92 % of control | [8] 96 % of control

CNCC(O)c1ccc(O)c(O)c1.[Pt].c1ccc([PH+](c2ccccc2)c2ccccc2)cc1.c1ccc([PH+](c2ccccc2)c2ccccc2)cc1
inactive: endpoint: median survival time, dose: 10.0 mg/kg/injection, schedule: Q04DX003 (ip), vehicle: saline with Tween-80 94 % of control | endpoint: median survival time, dose: 20.0 mg/kg/injection, schedule: Q04DX003 (ip), vehicle: saline with Tween-80 108 % of control | endpoint: median survival time, dose: 40.0 mg/kg/injection, schedule: Q04DX003 (ip), vehicle: saline with Tween-80 109 % of control | endpoint: median survival time, dose: 50.0 mg/kg/injection, schedule: Q04DX003 (ip), vehicle: saline with Tween-80 102 % of control | endpoint: median survival time, dose: 80.0 mg/kg/injection, schedule: Q04DX003 (ip), vehicle: saline with Tween-80 105 % of control | endpoint: median survival time, dose: 100.0 mg/kg/injection, schedule: Q04DX003 (ip), vehicle: saline with Tween-80 101 % of control

C/C=C1\CN2CCC34c5ccccc5N5C(=O)CCC(C1CC23)C54 (configuration not stated)
inactive: endpoint: mean survival time, dose: 5.0 mg/kg/injection, schedule: Q01DX001 (ip), vehicle: saline 98 % of control | endpoint: mean survival time, dose: 10.0 mg/kg/injection, schedule: Q01DX001 (ip), vehicle: saline 98 % of control | endpoint: mean survival time, dose: 20.0 mg/kg/injection, schedule: Q01DX001 (ip), vehicle: saline 98 % of control | endpoint: mean survival time, dose: 40.0 mg/kg/injection, schedule: Q01DX001 (ip), vehicle: saline 100 % of control

N#CC1CCCC1=O (configuration not stated)
inactive: endpoint: mean survival time, dose: 5.0 mg/kg/injection, schedule: Q04DX003 (ip), vehicle: saline 101 % of control | endpoint: mean survival time, dose: 10.0 mg/kg/injection, schedule: Q04DX003 (ip), vehicle: saline 101 % of control | endpoint: mean survival time, dose: 20.0 mg/kg/injection, schedule: Q04DX003 (ip), vehicle: saline 106 % of control
